From PubChem BioAssay (NCI) come the findings set out here.

Test systems include CCRF-CEM leukemia; HOP-92 NSCLC; HT29 colon; KM20L2 colon; MALME-3M melanoma; NCI-H460 lung; OVCAR-3 ovarian; OVCAR-4 ovarian; SK-MEL-5 melanoma; SK-OV-3 ovarian; SNB-19 CNS; SNB-75 CNS; SW-620 colon; UACC-257 melanoma; UO-31 renal.
What all share (assay): NCI anticancer screen, dose series, 48 h

Each structure is given as a SMILES string.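 Step 1: Grow cells in 96-well plates. Step 2: Expose to compound for 48 hours at 5 concentrations. Step 3: Interpolate endpoints linearly; if unreached, use highest concentration. The concentration for full growth arrest is given as TGI.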 Bounds are passed on as bounds.

As for `CCCCCCCc1cc(OC(=O)c2c(C)cc(OC)cc2O)cc(O)c1C(=O)O`, the TGI in the assay on CCRF-CEM leukemia is 78.6 µM; in the assay on HOP-92 NSCLC it was 41.8 µM; with HT29 colon, > 100 µM; in the assay with KM20L2 colon it was 40.3 µM; with MALME-3M melanoma it was 37.6 µM; with NCI-H460 lung it was 36 µM. For the same compound, the TGI in the assay on OVCAR-3 ovarian amounted to 28.7 µM; with OVCAR-4 ovarian, 78.2 µM; in the assay on SK-MEL-5 melanoma, 40.7 µM; in the assay with SK-OV-3 ovarian, 69.2 µM; with SNB-19 CNS, 58.3 µM; with SNB-75 CNS, 36.1 µM. Moreover, the TGI in the assay on SW-620 colon was 64.5 µM; in the assay on UACC-257 melanoma, 87.7 µM; in the assay on UO-31 renal, 30.6 µM.
For the compound `CCOc1ccc(NC(=O)C2=C(C)NC(C)=C(C(=O)Nc3ccc(OCC)cc3)C2c2ccc(O)c(OC)c2)cc1`, the TGI in the assay on CCRF-CEM leukemia is > 100 µM; with HOP-92 NSCLC, 53.9 µM; with HT29 colon it was > 100 µM; in the assay with KM20L2 colon, > 100 µM; in the assay on MALME-3M melanoma, > 100 µM; in the assay with NCI-H460 lung it was > 100 µM. Also, the TGI was > 100 µM with OVCAR-3 ovarian; > 100 µM with OVCAR-4 ovarian; > 100 µM in the assay on SK-MEL-5 melanoma; > 100 µM in the assay with SK-OV-3 ovarian; > 100 µM with SNB-19 CNS; 59.2 µM in the assay with SNB-75 CNS. The TGI with SW-620 colon, with UACC-257 melanoma and in the assay on UO-31 renal was > 100 µM each time.
Regarding `Cn1c2c(c3ccccc31)CCN(CCN1CCN(c3ccccc3)CC1)C2=O`, the TGI in the assay with CCRF-CEM leukemia is > 100 µM; with HOP-92 NSCLC, 96.5 µM; with HT29 colon, > 100 µM; with KM20L2 colon it was > 100 µM; in the assay with NCI-H460 lung it was > 100 µM; in the assay on SK-MEL-5 melanoma, > 100 µM. Moreover, the TGI in the assay with SK-OV-3 ovarian, in the assay with SW-620 colon and with UO-31 renal was > 100 µM throughout.
As to `CC(=O)O[C@]12CCCCC1C1(O)C(O)CCCCC12` (some centres not stated), the TGI with CCRF-CEM leukemia, in the assay on HT29 colon, in the assay on KM20L2 colon, with MALME-3M melanoma, in the assay with NCI-H460 lung and in the assay with OVCAR-4 ovarian was > 100 µM throughout. Moreover, the TGI with SK-MEL-5 melanoma, with SK-OV-3 ovarian, in the assay with SNB-19 CNS, with SNB-75 CNS, with SW-620 colon and with UACC-257 melanoma was > 100 µM each time. Further, in the assay with UO-31 renal, the TGI is > 100 µM.
On to `Cc1ccccc1C1OC(=O)c2ccccc21` (configuration not stated), for which the TGI with CCRF-CEM leukemia, in the assay with HT29 colon, with KM20L2 colon, in the assay on MALME-3M melanoma, with NCI-H460 lung and in the assay on OVCAR-3 ovarian was > 100 µM each time. Besides, the TGI in the assay with SK-MEL-5 melanoma, in the assay on SK-OV-3 ovarian, with SNB-19 CNS, in the assay on SNB-75 CNS, in the assay with SW-620 colon and in the assay on UO-31 renal was > 100 µM in each case.
As for `N#CC(C(=O)/C(=N/NC(=O)c1ccccc1O)C(C#N)c1ccccc1)c1ccccc1` (configuration not stated), the TGI in the assay on HOP-92 NSCLC, in the assay with HT29 colon, with KM20L2 colon, with MALME-3M melanoma, in the assay on NCI-H460 lung and in the assay on OVCAR-3 ovarian was > 100 µM throughout. The TGI in the assay on OVCAR-4 ovarian, in the assay with SK-OV-3 ovarian, in the assay on SNB-75 CNS, in the assay on UACC-257 melanoma and in the assay on UO-31 renal was > 100 µM each time.
For `CN(C)CCC(O)(c1ccccc1)C(O)(CCN(C)C)c1ccccc1` (configuration not stated), the TGI in the assay on CCRF-CEM leukemia was > 100 µM; in the assay with HT29 colon it was > 100 µM; in the assay on KM20L2 colon it was > 100 µM; with MALME-3M melanoma, 32.6 µM; in the assay on NCI-H460 lung, > 100 µM; with OVCAR-3 ovarian it was > 100 µM. Moreover, the TGI in the assay on OVCAR-4 ovarian, in the assay with SK-MEL-5 melanoma, in the assay on SK-OV-3 ovarian, in the assay on SNB-19 CNS, in the assay with SNB-75 CNS and in the assay on SW-620 colon was > 100 µM throughout. Moreover, the TGI in the assay on UACC-257 melanoma is 56.7 µM; in the assay on UO-31 renal, > 100 µM.
On to `O=C1[C@@H]2C(c3ccc(Cl)cc3Cl)=NO[C@@H]2C(=O)N1c1ccc(Cc2ccc(N3C(=O)[C@H]4C(c5ccc(Cl)cc5Cl)=NO[C@H]4C3=O)cc2)cc1`, for which the TGI with CCRF-CEM leukemia is > 100 µM; in the assay with HOP-92 NSCLC, 41.4 µM; in the assay with HT29 colon, > 100 µM; in the assay on KM20L2 colon it was > 100 µM; in the assay on MALME-3M melanoma, > 100 µM; in the assay with OVCAR-3 ovarian, > 100 µM. Also, the TGI with OVCAR-4 ovarian, with SK-MEL-5 melanoma, in the assay with SK-OV-3 ovarian, with SNB-75 CNS, in the assay on SW-620 colon and in the assay on UACC-257 melanoma was > 100 µM throughout. The TGI with UO-31 renal was > 100 µM.
Regarding `COc1ccc(/C(Cl)=C(/c2ccc(O)cc2)c2ccc(OCCN(C)C)cc2)cc1`, the TGI in the assay with HT29 colon was 6.49 µM; in the assay on KM20L2 colon, 11.7 µM; in the assay with MALME-3M melanoma, 14.4 µM; in the assay with NCI-H460 lung, 26 µM; with OVCAR-3 ovarian, 28.8 µM; in the assay on OVCAR-4 ovarian, 27.1 µM. For the same compound, the TGI in the assay on SK-MEL-5 melanoma was found to be 16.9 µM; in the assay on SK-OV-3 ovarian it was 26.3 µM; in the assay with SNB-19 CNS, 27.1 µM; with SNB-75 CNS, 23.3 µM; in the assay on SW-620 colon it was 24.2 µM; in the assay with UACC-257 melanoma it was 9.09 µM. In addition, the TGI with UO-31 renal came to 19.7 µM.
Turning to `CC(=O)N1c2ccccc2C2=CC3C4C(=O)N(c5ccccc5)C(=O)C4C21C1C(=O)N(c2ccccc2)C(=O)C31` (configuration not stated), the TGI in the assay on CCRF-CEM leukemia is > 100 µM; in the assay with HOP-92 NSCLC, > 100 µM; in the assay with HT29 colon, > 100 µM; with KM20L2 colon, 70 µM; in the assay with MALME-3M melanoma, > 100 µM; in the assay on NCI-H460 lung it was > 100 µM. The TGI with SK-OV-3 ovarian, with SNB-19 CNS, in the assay on SNB-75 CNS, with SW-620 colon, in the assay on UACC-257 melanoma and in the assay on UO-31 renal was > 100 µM each time.
